Holding throughout (format): in vivo
Experiment [1] deals with ragweed (common ragweed, Ambrosia elatior). Kind of experiment: Test A preemergence. Particulars: Ambrosia artemisiifolia, pre-emergence, 240 h, preemergence, 0 to 100 scale where 0 is no effect and 100 is complete control, read-out: Ragweed plant response rating; for pest or weed control at 125 g/ha: 125 g ai/ha, visual injury rating, approximately 10 d; for pest or weed control at 500 g/ha: 500 g ai/ha. A digest of the protocol:
(§1)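 Each rating is a visual injury score from 0 to 100 given about 10 d after treatment, judged against untreated controls kept alongside in the greenhouse. In loam soil–sand blend, seeds got a preemergence directed soil spray, while postemergence plants were 2 to 10 cm tall at spraying.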

Experiment [2] has as its system ryegrass, Italian (Italian ryegrass, Lolium multiflorum). In words: Test A preemergence. As to conditions: Lolium multiflorum, pre-emergence, 240 h, preemergence, 0 to 100 scale where 0 is no effect and 100 is complete control, read-out: Ryegrass, Italian plant response rating; for pest or weed control at 125 g/ha: 125 g ai/ha, visual injury rating, approximately 10 d; for pest or weed control at 500 g/ha: 500 g ai/ha. A digest of the protocol: as §1

The test system of experiment [3] is Kochia (Kochia scoparia). Kind of experiment: Test A preemergence. As to conditions: Bassia scoparia, pre-emergence, 240 h, preemergence, 0 to 100 scale where 0 is no effect and 100 is complete control, read-out: Kochia plant response rating; for pest or weed control at 500 g/ha: 500 g ai/ha. A digest of the protocol:
as §1

Experiment [4] relates to giant foxtail (Setaria faberii). In words: Test A preemergence. Particulars: Setaria faberi, pre-emergence, 240 h, preemergence, 0 to 100 scale where 0 is no effect and 100 is complete control, read-out: Foxtail, Giant plant response rating; for pest or weed control at 125 g/ha: 125 g ai/ha, visual injury rating, approximately 10 d; for pest or weed control at 500 g/ha: 500 g ai/ha. A digest of the protocol:
as §1

The subject of experiment [5] is pigweed (Amaranthus retroflexus). Kind of experiment: Test A preemergence. Particulars: Amaranthus retroflexus, pre-emergence, 240 h, preemergence, 0 to 100 scale where 0 is no effect and 100 is complete control, read-out: Pigweed plant response rating; for pest or weed control at 125 g/ha: 125 g ai/ha, visual injury rating, approximately 10 d; for pest or weed control at 500 g/ha: 500 g ai/ha.

Experiment [6] concerns barnyardgrass (Echinochloa crus-galli). In words: Test A preemergence. As to conditions: Echinochloa crus-galli, pre-emergence, 240 h, preemergence, 0 to 100 scale where 0 is no effect and 100 is complete control, read-out: Barnyardgrass plant response rating; for pest or weed control at 125 g/ha: 125 g ai/ha, visual injury rating, approximately 10 d; for pest or weed control at 500 g/ha: 500 g ai/ha. A digest of the protocol: as §1

Experiment [7] deals with sedge, umbrella (small-flower umbrella sedge, Cyperus difformis). In words: Test B flooded paddy test. As to conditions: Cyperus difformis, 250 g ai/ha, Flood; 0 to 100 scale where 0 is no effect and 100 is complete control; read-out: Sedge, Umbrella plant response rating. A digest of the protocol:
(§2)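 Percent control, visually estimated after 13–15 d in the greenhouse on a 0–100 basis, compares treated pots with untreated ones; compound was put into paddy water 3 cm above the soil when plants had two leaves.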

Experiment [8] has as its system ducksalad (Heteranthera limosa). Kind of experiment: Test B flooded paddy test. Particulars: Heteranthera limosa, 250 g ai/ha, Flood; 0 to 100 scale where 0 is no effect and 100 is complete control; read-out: Ducksalad plant response rating. Put shortly:
as §2

For experiment [9], the system named is barnyardgrass (Echinochloa crus-galli). Kind of experiment: Test B flooded paddy test. Particulars: Echinochloa crus-galli, 250 g ai/ha, Flood; 0 to 100 scale where 0 is no effect and 100 is complete control; read-out: Barnyardgrass plant response rating. A digest of the protocol: as §2
In experiment [10] the test system is rice (Oryra sativa). In words: Test B flooded paddy test. Particulars: Oryza sativa, 250 g ai/ha, Flood; 0 to 100 scale where 0 is no effect and 100 is complete control; read-out: Rice plant response rating. A digest of the protocol:
as §2

The subject of experiment [11] is ryegrass, Italian (Italian ryegrass, Lolium multiflorum). Kind of experiment: Test A postemergence. Particulars: Lolium multiflorum, post-emergence, 240 h; for pest or weed control at 125 g/ha: 125 g ai/ha, visual injury vs untreated controls after approx. 10 d, 0 = no effect, 100 = complete control, read-out: Ryegrass, Italian plant response rating (0 to 100 scale); for pest or weed control at 500 g/ha: 500 g ai/ha. A digest of the protocol: as §1

In experiment [12] the test system is giant foxtail (Setaria faberii). Kind of experiment: Test A postemergence. Particulars: Setaria faberi, post-emergence, 240 h; for pest or weed control at 125 g/ha: 125 g ai/ha, visual injury vs untreated controls after approx. 10 d, 0 = no effect, 100 = complete control, read-out: Foxtail, Giant plant response rating (0 to 100 scale); for pest or weed control at 500 g/ha: 500 g ai/ha. Put shortly: as §1

Experiment [13] relates to pigweed (Amaranthus retroflexus). Kind of experiment: Test A postemergence. As to conditions: Amaranthus retroflexus, post-emergence, 240 h; for pest or weed control at 125 g/ha: 125 g ai/ha, visual injury vs untreated controls after approx. 10 d, 0 = no effect, 100 = complete control, read-out: Pigweed plant response rating (0 to 100 scale); for pest or weed control at 500 g/ha: 500 g ai/ha. A digest of the protocol:
as §1

The subject of experiment [14] is barnyardgrass (Echinochloa crus-galli). Kind of experiment: Test A postemergence. As to conditions: Echinochloa crus-galli, post-emergence, 240 h; for pest or weed control at 125 g/ha: 125 g ai/ha, visual injury vs untreated controls after approx. 10 d, 0 = no effect, 100 = complete control, read-out: Barnyardgrass plant response rating (0 to 100 scale); for pest or weed control at 500 g/ha: 500 g ai/ha. A digest of the protocol: as §1

For the compound `CSc1ccccc1NC(=O)[C@H]1C(=O)N(C)C[C@@H]1c1cccc(C(F)(F)F)c1` [Compound 1249], the pest or weed control at 125 g/ha in [1] is 30%; in experiment [2], 30%; in [4], 100%; in experiment [5] it was 80%; in [6], 100%; in experiment [11] (postemergence) it was 30%. Moreover, the pest or weed control at 125 g/ha came to 80% in experiment [12] (postemergence), 30% in experiment [13] (postemergence) and 100% in [14] (postemergence). Further, the pest or weed control at 500 g/ha came to 70% in experiment [1]; 100% in experiment [2]; 90% in [3]; 100% in experiment [4]; 90% in [5]; 100% in experiment [6]. For the same compound, the pest or weed control at 500 g/ha in [11] (Postemergence, visual injury, 0 to 100 scale (0 no effect, 100 complete control), approx. 10 d, read-out: Plant response rating, Ryegrass, Italian) was determined as 70%; in [12] (Postemergence, visual injury, 0 to 100 scale (0 no effect, 100 complete control), approx. 10 d, read-out: Plant response rating, Foxtail, Giant), 80%; in [13] (Postemergence, visual injury, 0 to 100 scale (0 no effect, 100 complete control), approx. 10 d, read-out: Plant response rating, Pigweed) it was 80%; in experiment [14] (Postemergence, visual injury, 0 to 100 scale (0 no effect, 100 complete control), approx. 10 d, read-out: Plant response rating, Barnyardgrass), 100%. Moreover, the pest or weed control at 250 g/ha in experiment [7] amounted to 0%; in experiment [8], 100%; in [9] it was 60%; in experiment [10], 0%.

With `Cc1c(F)cccc1NC(=O)[C@H]1C(=O)N(C)C[C@@H]1c1ccc(F)c(Br)c1` [Compound 1211], the pest or weed control at 125 g/ha was 50% in [1]; 50% in [2]; 20% in experiment [3] (125 g ai/ha, visual injury rating, approximately 10 d); 100% in experiment [4]; 50% in experiment [5]; 100% in experiment [6]. The pest or weed control at 125 g/ha is 0% in experiment [11] (postemergence), 80% in experiment [12] (postemergence), 30% in experiment [13] (postemergence) and 100% in [14] (postemergence). Moreover, the pest or weed control at 500 g/ha was 50% in [1]; 80% in experiment [2]; 70% in [3]; 100% in experiment [4]; 70% in experiment [5]; 100% in experiment [6]. In addition, the pest or weed control at 500 g/ha in experiment [11] (postemergence, 0 to 100 scale, 0 is no effect, 100 is complete control, read-out: Ryegrass, Italian plant response rating) is 70%; in experiment [12] (postemergence, 0 to 100 scale, 0 is no effect, 100 is complete control, read-out: Foxtail, Giant plant response rating) it was 80%; in [13] (postemergence, 0 to 100 scale, 0 is no effect, 100 is complete control, read-out: Pigweed plant response rating), 30%; in experiment [14] (postemergence, 0 to 100 scale, 0 is no effect, 100 is complete control, read-out: Barnyardgrass plant response rating) it was 100%. Further, the pest or weed control at 250 g/ha in experiment [7] came to 0%; in experiment [8], 100%; in experiment [9], 85%; in experiment [10], 60%.

For the origin of these results see patent US12077503B2, “Substituted cyclic amides and their use as herbicides” (FMC CORPORATION, priority 2015, dated 2024).
